The values below come from US20250339518A1 (priority 2023, published 2025).

Holding throughout (format): cell-based, murine
One assay has as its system MB49-STING KO cell line.
The subject of assay [1] is MB49-Double KO (MB49 2KO) cell line.
The test system of assay [2] is MB49 cells.
The test system of assay [3] is MB49 cells. This is another data set of the same source.

As to `CC(C)c1ccc2oc3nc(N)c(C(=O)O)cc3c(=O)c2c1` [Amlexanox], the “VAX014-induced IFN-β production, pIRF3/IRF3 ratios and PD-L1/MHC-I surface expression after inhibitor preincubation” value in the assay on MB49-STING KO cell line is “nearly to baseline conditions of the untreated control”.

On to `Cc1ccc2c(=O)c3cccc(CC(=O)O)c3oc2c1C` [DMXAA], for which, in assay [1], the IFN-β production entry is reported as “Complete loss” and the “Surface PD-L1 expression” value was “Complete loss”. In the assay with MB49 cells [2], the “Type I IFN (IFN-β) production in culture supernatants” value is “stimulated IFN production”. Moreover, the PD-L1 surface expression result with MB49 cells [3] is on record as “able to induce PD-L1 expression”. Further, in the assay with MB49-STING KO cell line, the “PD-L1 and MHC-I surface expression” value was “loss of PD-L1 and MHC-I”.
